Experimental data as given in patent US5668134A, “Method for preventing or reducing photosensitivity and/or phototoxicity reactions to medications” (priority 1994, dated 1997).
Where “and” joins values, the source holds several entries; their conditions need not be identical. Identical values can stand only once. Counter-ions that a name gives are not always drawn.

Tests used:
[1] = system: gram-negative and gram-positive organisms; experiment: Bactericidal activity in vitro, MBC relative to MIC; assay type: cell-based
Pseudomonas aeruginosa = experiment: Activity in vitro and in clinical infections; assay type: cell-based
[2] = Pharmacokinetics in patients with cirrhosis; assay type: in vivo, human; details: 12 patients with cirrhosis, 400 mg single dose
[3] = system: skin of healthy volunteers; details: in vivo
Description: The relationship between plasma concentration at time of irradiation and delayed MEDUVA was explored using regression analysis by testing the equality of the slopes of the regression of delayed MEDUVA on plasma concentration, obtaining estimates of the parameters of the regression line, and determining the correlation coefficient.

[4] = Example 5: lomefloxacin plasma concentrations; details: for concentration at 14 h: Hour 14, mean; for plasma concentration, Hour 86: 72 hours following last active dose
[5] = Physicochemical properties of lomefloxacin HCl
[6] = human, plasma, mean, a.m. dosing
[7] = human, plasma, mean, p.m. dosing

For `CCn1cc(C(=O)O)c(=O)c2cc(F)c(N3CCNC(C)C3)c(F)c21` (racemic) [lomefloxacin HCl, monohydrochloride salt of (±)-1-ethyl-6,8-difluoro-1,4-dihydro-7-(3-methyl-1-piperazinyl)-4-oxo-3-quinolinecarboxylic acid], the “MBC relative to MIC” value ([1]; generally, except staphylococci) was ≤ 2 factor, the antibacterial activity ([1]; in vitro) was “bactericidal agent with in vitro activity against a wide range of gram-negative and gram-positive organisms” and the “activity against most strains” value (Pseudomonas aeruginosa) was “active against most strains”. For the same compound, the “changes in rate or extent of exposure (Cmax, Tmax, t1/2 or AUC)” value [2] was “no significant changes”, the “reduction in Minimum Erythema Dose from baseline at high plasma concentration” value [3] was “marked reduction in Minimum Erythema Dose from baseline” and the “reduction in Minimum Erythema Dose from baseline at low plasma concentration” value [3] was “no reduction in Minimum Erythema Dose from baseline”. It also gave an AUC [4, 6] of 47000 ng·h/mL, an AUC [4, 7] of 40000 ng·h/mL and a Cmax [4, 6] of 3000 ng/mL. It also gave a Cmax [4, 7] of 2900 ng/mL, a Tmax ([4]; human, plasma, Tmax, mean, a.m. dosing, sample hour scale) of 14.9 h and a Tmax ([4]; human, plasma, Tmax, mean, p.m. dosing) of 2.9 h. The concentration at 2 h ([4]; human, plasma, plasma concentration, Hour 2, mean, mean, a.m. dosing, 12 hours prior to last active dose) was 1100 ng/mL, the concentration at 2 h ([4]; human, plasma, plasma concentration, Hour 2, mean, mean, p.m. dosing, 2 hours following last active dose) was 2900 ng/mL and the concentration at 14 h ([4]; human, plasma, plasma concentration, mean, a.m. dosing, immediately prior to last active dose) was 300 ng/mL. For the same compound, the concentration at 14 h ([4]; human, plasma, plasma concentration, mean, p.m. dosing, 14 hours following last active dose) was 1000 ng/mL, the concentration at 2 h ([4]; human, plasma, plasma concentration, Hour 16, individual subjects, a.m. dosing, 2 hours following last active dose) was 2920 ng/mL and the concentration at 2 h ([4]; human, plasma, plasma concentration, Hour 16, mean, mean, a.m. dosing, 2 hours following last active dose) was 3100 ng/mL. It also gave a concentration at 16 h ([4]; human, plasma, plasma concentration, Hour 16, mean, mean, p.m. dosing, 16 hours following last active dose) of 800 ng/mL, a concentration at 5 h ([4]; human, plasma, plasma concentration, Hour 19, individual subjects, a.m. dosing, 5 hours following last active dose) of 1850 ng/mL and a concentration at 5 h ([4]; human, plasma, plasma concentration, Hour 19, mean, mean, a.m. dosing, 5 hours following last active dose) of 2200 ng/mL. The concentration at 19 h ([4]; human, plasma, plasma concentration, Hour 19, mean, mean, p.m. dosing, 19 hours following last active dose) was 600 ng/mL, the concentration at 24 h ([4]; human, plasma, plasma concentration, Hour 38, mean, mean, a.m. dosing, 24 hours following last active dose) was 300 ng/mL and the concentration at 38 h ([4]; human, plasma, plasma concentration, Hour 38, mean, mean, p.m. dosing, 38 hours following last active dose) was 100 ng/mL. For the same compound, the “plasma concentration, Hour 16” value ([4]; individual subjects, a.m. dosing, 2 hours following last active dose, 120 min) was 2420 ng/mL and 3160 ng/mL and 3730 ng/mL and 3000 ng/mL and 3660 ng/mL and 2650 ng/mL and 2840 ng/mL and 2950 ng/mL and 3050 ng/mL and 2940 ng/mL and 4040 ng/mL and 2580 ng/mL, the “plasma concentration, Hour 19” value ([4]; individual subjects, a.m. dosing, 5 hours following last active dose, 300 min) was 1710 ng/mL and 1810 ng/mL and 2370 ng/mL and 2360 ng/mL and 2280 ng/mL and 1780 ng/mL and 2060 ng/mL and 1750 ng/mL and 1720 ng/mL and 2880 ng/mL and 3060 ng/mL and 2390 ng/mL and the “plasma concentration, Hour 2” value ([4]; individual subjects, a.m. dosing, 12 hours prior to last active dose, 120 min) was 786 ng/mL and 1030 ng/mL and 889 ng/mL and 1460 ng/mL and 1360 ng/mL and 711 ng/mL and 1090 ng/mL and 840 ng/mL and 915 ng/mL and 1200 ng/mL and 1280 ng/mL and 1110 ng/mL and 1500 ng/mL. For the same compound, the “plasma concentration, Hour 0” value ([4]; individual subjects, a.m. dosing, 14 hours prior to last active dose) was 1160 ng/mL and 1060 ng/mL and 1540 ng/mL and 1520 ng/mL and 1350 ng/mL and 901 ng/mL and 1370 ng/mL and 1080 ng/mL and 1180 ng/mL and 1720 ng/mL and 1360 ng/mL and 1800 ng/mL, the “plasma concentration, Hour 38” value ([4]; individual subjects, a.m. dosing, 24 hours following last active dose, 1440 min) was 230 ng/mL and 318 ng/mL and 281 ng/mL and 346 ng/mL and 467 ng/mL and 319 ng/mL and 251 ng/mL and 361 ng/mL and 201 ng/mL and 157 ng/mL and 258 ng/mL and 263 ng/mL and 367 ng/mL and the “plasma concentration, Hour 62” value ([4]; individual subjects, a.m. dosing, 48 hours following last active dose, 2880 min) was 39 ng/mL and 64 ng/mL and 27 ng/mL and 54 ng/mL and 73 ng/mL and 35 ng/mL and 53 ng/mL and 21 ng/mL and 16 ng/mL and 36 ng/mL. The “plasma concentration, Hour 86” value ([4]; individual subjects, a.m. dosing) was 0 ng/mL, the “plasma concentration, Hour 86” value ([4]; individual subjects, a.m. dosing, 4320 min) was 11 ng/mL and 16 ng/mL and 6 ng/mL and 13 ng/mL and 19 ng/mL and 7 ng/mL and 9 ng/mL and 17 ng/mL and the “plasma concentration, Hour 14” value ([4]; individual subjects, a.m. dosing, immediately prior to last active dose, 840 min) was 271 ng/mL and 368 ng/mL and 243 ng/mL and 385 ng/mL and 479 ng/mL and 297 ng/mL and 210 ng/mL and 350 ng/mL and 204 ng/mL and 279 ng/mL and 317 ng/mL and 283 ng/mL and 419 ng/mL. The Tmax ([4]; individual subjects, a.m. dosing, sample hour scale) was 16 h and 0 h, the Tmax ([4]; individual subjects, p.m. dosing) was 14 h and the “plasma concentration, Hour 0, mean” value ([4]; mean, a.m. dosing, 14 hours prior to last active dose) was 1300 ng/mL. For the same compound, the solubility in alcohol [5] was “practically insoluble in alcohol” and the solubility in water [5] was “slightly soluble in water”.
